The text below walks through data of PMC9271885 (eBioMedicine, 2022).

Structures are written as SMILES. Several values for one entry are separate records, joined by “and”; a condition that tells them apart may be missing. Equal entries are not always repeated.

One experiment concerns SARS-CoV-2. The experiment can be described thus: Hamster model of SARS-CoV-2 infection, oral NTZ treatment (lung infectious titers, lung viral RNA yields, plasma viral loads). Format: in vivo, Syrian hamsters. More on the design: Lung Infectious titers / Plasmatic viral RNA yields / Lung Viral RNA yields: unit not given here.
Experiment [1] can be described thus: Clinical course of the disease in infected hamsters (normalized weight, clinical signs). The class given is in vivo, Syrian hamsters. Particulars: Favipiravir IP 926mg/kg/day BID, inoculum 104 TCID50, sacrifice day 3, Figure 3, individual animals. As for the experimental part:
Three-week-old female Syrian hamsters were provided by Janvier Labs (SPF status). Animals were maintained in ISOcage P - Bioexclusion System (Techniplast) with unlimited access to water/food and 14h/10h light/dark cycle. A wooden gnawing block and extra bedding material was provided as cage enrichment. Animals were weighed and monitored daily for the duration of the study to detect the appearance of any clinical signs of illness/suffering. General anesthesia was obtained with isoflurane (Isoflurin®, Axience). Euthanasia, which was also realized under general anesthesia, was performed by cervical dislocation.
Groups of 6 hamsters were intranasally infected with 10^4 TCID50 of virus. a Experimental timeline. b, f, j Viral replication in lung based on infectious titers (measured using a TCID50 assay) expressed in TCID50/g of lung (n=6 animals/group). c, g, k Viral replication in lung based on viral RNA yields (measured using an RT-qPCR assay) expressed in viral genome copies/g of lung (n=6 animals/group). d, h, l Plasma viral loads (measured using an RT-qPCR assay) are expressed in viral genome copies/mL of plasma (the dotted line indicates the detection threshold of the assay) (n=6 animals/group). e, i, m Clinical course of the disease (n=6 animals/group). Normalized weight at day n was calculated as follows: % of initial weight of the animal at day n. Data represent mean ± SD (Details in Supplementary Data 2).

Where [2] appears, read: FVP 926mg/kg/day BID intraperitoneally, 3 dpi.
The mark [3] stands for this setting: Favipiravir IP 926mg/kg/day BID, inoculum 104 TCID50, sacrifice day 3, Figure 3, individual animals, 926 mg/kg/day.

Method for SARS-CoV-2: After one week of acclimatisation, four-week-old anesthetized animals were intranasally infected with 50µL containing 10^4 TCID50 of virus in 0.9% sodium chloride solution. The mock-infected group was intranasally inoculated with 50 µL of 0.9% sodium chloride solution.
The solution was prepared with 0.5% of hydroxypropyl methylcellulose and 0.1% of tween 80. […] A solution of favipiravir, reconstituted from anhydrous favipiravir (Toyama-Chemical) with 0.9% sodium chloride solution, was used for intra-peritoneally and intranasally treatment. Control group were orally or intranasally inoculated with a 0.9% sodium chloride solution.
Lungs, nasal turbinates and blood were collected immediately after euthanasia. The left pulmonary lobe was first rinsed in 10mL of 0.9% sodium chloride solution, blotted with filter paper and weighed. Nasal turbinates and pulmonary lobes were transferred to a 2mL tube containing respectively 500µL or 1mL of 0.9% sodium chloride solution and 1mm or 3mm glass beads. They were crushed using a Tissue Lyser machine (Retsch MM400) for 5min at 30 cycles/s and then centrifuged 10 min at 16,200g. Crushed nasal tubinates were stored at -80°C while lung supernatant media were transferred to a 1.5mL tube, for another centrifugation during 10 min at 16,200g prior being stored at -80°C. One milliliter of blood was harvested in a 2mL tube containing 100µL of 0.5M EDTA (Life Technologies). Blood was centrifuged for 10 min at 16,200g and stored at -80°C.
Quantification was provided by four 2 log serial dilutions of an appropriate T7-generated synthetic RNA standard of known quantities (10^2 to 10^8 copies/reaction). Amplification was performed with the QuantStudio 12K Flex Real-Time PCR System (Applied Biosystems) using standard fast cycling parameters: 10min at 50°C, 2 min at 95°C, and 40 amplification cycles (95°C for 3 sec followed by 30sec at 60°C). qPCR (ɣ-actine gene detection) was performed under the same condition as RT-qPCR with the following modifications: we used the Express one step qPCR Universal kit (ThermoFisher Scientific) and the 50°C step of the amplification cycle was removed. Results were analyzed using QuantStudio 12K Flex Applied Biosystems software v1.2.3.
To determine infectious titers, 96-well culture plates containing confluent Vero E6 cells were inoculated with 150μL per well of serial dilutions of each sample (ten-fold or four-fold dilutions when analyzing cell supernatant media or lung clarified homogenates respectively). Each dilution was performed in sextuplicate. After 5 days of incubation, plates were read for the absence or presence of cytopathic effect in each well. Infectious titers were estimated using the method characterized by Reed & Muench.[30]
Untreated groups of 6 hamsters received the suspension vehicle BID or TID. A group of 6 animals was treated with favipiravir (FVP) intraperitoneally (926mg/kg/day BID) as positive control in one experiment.[24]

Regarding `NC(=O)c1nc(F)c[nH]c1=O` [FVP, favipiravir], in the experiment with SARS-CoV-2 (setting [2]), the “infectious titers in clarified lung homogenates vs untreated animals” value was “significant reductions” and the “viral RNA yields in clarified lung homogenates vs untreated animals” value is “significant reductions”. For the same molecule, in the experiment on SARS-CoV-2 (setting [3]), the “Lung Infectious titers” value is 6.755 and 6.354 and 7.035 and 6.515 and 6.109 and 6.625; the “Lung Viral RNA yields” value was 6.542 and 6.443 and 6.907 and 6.536 and 6.197 and 6.702. Besides, the “Plasmatic viral RNA yields” value in the experiment with SARS-CoV-2 (Favipiravir IP 926mg/kg/day BID, inoculum 104 TCID50, sacrifice day 3, Figure 3, individual animals, ¤ : Detection threshold at 1000 cp/ml, 926 mg/kg/day) was 3.034 and 2.169 and 2.511 and 5.618. Further, the “Normalized weights Day 0” value in experiment [1] is 100. In experiment [1] (926 mg/kg/day), the “Normalized weights Day 1” value was 104.7 and 102.8 and 102.5 and 104.5 and 103.7 and 104.9; the “Normalized weights Day 2” value is 101.3 and 102.5 and 100.8 and 100.6 and 94.2 and 104.4; the “Normalized weights Day 3” value is 97.1 and 105.0 and 92.2 and 91.0 and 105.5 and 105.7.
